Common to all, as to format: biochemical
The target of test [1] is T1, JAK1 (Homo sapiens, UniProt P23458).
T1 construct: purchased Carna Biosciences, Inc
Description: JAK tyrosine kinase inhibitory activity in the presence of 1 mM ATP (ELISA), JAK1. An outline of the steps: (§1)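 Recombinant kinase (7.5 nM JAK1; 0.75 nM JAK2, JAK3 working dilutions) reacted 1 h at 30 °C with 1 mM ATP in Tris-HCl pH 7.5, Tween-20, DTT, on streptavidin plates. Phosphotyrosine detected by HRP anti-pTyr antibody ELISA, TMB absorbance at 450 nm; duplicate wells, DMSO as negative control.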
(ELISA stands for enzyme-linked immunosorbent assay.)

Test [2] concerns the target T2, JAK2 (Homo sapiens, UniProt O60674).
T2 construct: purchased Carna Biosciences, Inc
The test can be described thus: JAK tyrosine kinase inhibitory activity in the presence of 1 mM ATP (ELISA), JAK2. An outline of the steps: as §1

Test [3] has as its target T3, JAK3 (Homo sapiens, UniProt P52333).
T3 construct: purchased Carna Biosciences, Inc
T3 sequence (P52333 1-1124): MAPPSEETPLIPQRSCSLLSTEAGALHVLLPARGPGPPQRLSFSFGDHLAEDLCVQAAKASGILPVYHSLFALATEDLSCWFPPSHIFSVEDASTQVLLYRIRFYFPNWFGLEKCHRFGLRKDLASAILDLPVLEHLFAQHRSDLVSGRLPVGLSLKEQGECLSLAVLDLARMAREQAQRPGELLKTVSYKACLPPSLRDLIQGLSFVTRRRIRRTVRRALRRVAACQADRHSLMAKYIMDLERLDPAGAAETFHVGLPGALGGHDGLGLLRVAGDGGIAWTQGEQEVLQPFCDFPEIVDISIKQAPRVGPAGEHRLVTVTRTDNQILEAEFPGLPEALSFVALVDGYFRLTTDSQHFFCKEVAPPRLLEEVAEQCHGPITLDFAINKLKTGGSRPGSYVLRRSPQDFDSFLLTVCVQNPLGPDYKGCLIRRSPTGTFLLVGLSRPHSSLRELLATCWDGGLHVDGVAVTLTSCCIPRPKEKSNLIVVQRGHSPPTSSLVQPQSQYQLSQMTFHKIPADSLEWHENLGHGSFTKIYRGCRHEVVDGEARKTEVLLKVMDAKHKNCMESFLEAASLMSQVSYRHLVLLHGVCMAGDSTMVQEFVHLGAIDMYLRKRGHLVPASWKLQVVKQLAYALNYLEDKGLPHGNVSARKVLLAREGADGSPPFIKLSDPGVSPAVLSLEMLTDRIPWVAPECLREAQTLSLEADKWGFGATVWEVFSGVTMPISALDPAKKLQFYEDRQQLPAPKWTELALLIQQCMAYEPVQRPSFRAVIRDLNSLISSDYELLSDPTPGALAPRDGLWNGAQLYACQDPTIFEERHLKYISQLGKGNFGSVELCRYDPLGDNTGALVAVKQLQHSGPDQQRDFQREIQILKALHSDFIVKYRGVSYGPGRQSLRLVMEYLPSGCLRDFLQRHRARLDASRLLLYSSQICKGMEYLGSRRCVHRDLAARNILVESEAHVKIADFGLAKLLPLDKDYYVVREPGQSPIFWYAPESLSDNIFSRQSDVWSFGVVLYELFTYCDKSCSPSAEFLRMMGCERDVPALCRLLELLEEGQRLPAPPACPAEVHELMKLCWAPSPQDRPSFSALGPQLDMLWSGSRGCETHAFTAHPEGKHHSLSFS
The test can be described thus: JAK tyrosine kinase inhibitory activity in the presence of 1 mM ATP (ELISA), JAK3. An outline of the steps: as §1

For orientation: IC50 means the point on the concentration scale where inhibition reaches its midpoint.

T1 sequence (P23458 whole entry): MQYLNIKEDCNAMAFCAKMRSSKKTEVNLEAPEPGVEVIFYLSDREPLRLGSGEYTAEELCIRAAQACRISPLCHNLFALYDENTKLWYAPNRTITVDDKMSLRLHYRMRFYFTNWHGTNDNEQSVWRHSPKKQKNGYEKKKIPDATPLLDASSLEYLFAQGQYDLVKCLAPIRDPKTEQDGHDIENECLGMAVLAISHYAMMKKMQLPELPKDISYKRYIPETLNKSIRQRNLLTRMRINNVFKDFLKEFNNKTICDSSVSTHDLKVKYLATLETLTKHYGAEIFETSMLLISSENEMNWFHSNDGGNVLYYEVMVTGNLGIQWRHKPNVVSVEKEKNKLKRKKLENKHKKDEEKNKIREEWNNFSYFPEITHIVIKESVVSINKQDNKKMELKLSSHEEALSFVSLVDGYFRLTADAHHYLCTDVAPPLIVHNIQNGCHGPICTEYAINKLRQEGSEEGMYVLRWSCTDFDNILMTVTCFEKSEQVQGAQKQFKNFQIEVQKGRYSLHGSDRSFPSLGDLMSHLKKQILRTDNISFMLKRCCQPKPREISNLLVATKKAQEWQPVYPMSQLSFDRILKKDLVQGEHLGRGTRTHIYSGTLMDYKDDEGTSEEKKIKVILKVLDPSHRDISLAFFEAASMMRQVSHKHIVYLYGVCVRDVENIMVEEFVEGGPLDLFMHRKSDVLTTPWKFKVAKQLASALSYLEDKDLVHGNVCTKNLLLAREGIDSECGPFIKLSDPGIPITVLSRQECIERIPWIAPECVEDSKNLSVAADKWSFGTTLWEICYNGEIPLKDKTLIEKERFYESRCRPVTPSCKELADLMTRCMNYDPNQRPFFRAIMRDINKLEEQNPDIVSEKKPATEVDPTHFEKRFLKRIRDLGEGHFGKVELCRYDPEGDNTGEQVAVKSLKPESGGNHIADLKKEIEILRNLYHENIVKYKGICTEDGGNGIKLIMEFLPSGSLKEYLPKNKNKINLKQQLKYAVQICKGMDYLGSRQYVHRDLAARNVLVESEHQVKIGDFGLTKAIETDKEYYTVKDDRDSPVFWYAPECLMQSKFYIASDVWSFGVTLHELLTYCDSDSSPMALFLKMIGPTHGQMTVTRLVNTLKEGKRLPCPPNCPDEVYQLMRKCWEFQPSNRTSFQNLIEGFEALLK
T2 sequence (O60674 whole entry): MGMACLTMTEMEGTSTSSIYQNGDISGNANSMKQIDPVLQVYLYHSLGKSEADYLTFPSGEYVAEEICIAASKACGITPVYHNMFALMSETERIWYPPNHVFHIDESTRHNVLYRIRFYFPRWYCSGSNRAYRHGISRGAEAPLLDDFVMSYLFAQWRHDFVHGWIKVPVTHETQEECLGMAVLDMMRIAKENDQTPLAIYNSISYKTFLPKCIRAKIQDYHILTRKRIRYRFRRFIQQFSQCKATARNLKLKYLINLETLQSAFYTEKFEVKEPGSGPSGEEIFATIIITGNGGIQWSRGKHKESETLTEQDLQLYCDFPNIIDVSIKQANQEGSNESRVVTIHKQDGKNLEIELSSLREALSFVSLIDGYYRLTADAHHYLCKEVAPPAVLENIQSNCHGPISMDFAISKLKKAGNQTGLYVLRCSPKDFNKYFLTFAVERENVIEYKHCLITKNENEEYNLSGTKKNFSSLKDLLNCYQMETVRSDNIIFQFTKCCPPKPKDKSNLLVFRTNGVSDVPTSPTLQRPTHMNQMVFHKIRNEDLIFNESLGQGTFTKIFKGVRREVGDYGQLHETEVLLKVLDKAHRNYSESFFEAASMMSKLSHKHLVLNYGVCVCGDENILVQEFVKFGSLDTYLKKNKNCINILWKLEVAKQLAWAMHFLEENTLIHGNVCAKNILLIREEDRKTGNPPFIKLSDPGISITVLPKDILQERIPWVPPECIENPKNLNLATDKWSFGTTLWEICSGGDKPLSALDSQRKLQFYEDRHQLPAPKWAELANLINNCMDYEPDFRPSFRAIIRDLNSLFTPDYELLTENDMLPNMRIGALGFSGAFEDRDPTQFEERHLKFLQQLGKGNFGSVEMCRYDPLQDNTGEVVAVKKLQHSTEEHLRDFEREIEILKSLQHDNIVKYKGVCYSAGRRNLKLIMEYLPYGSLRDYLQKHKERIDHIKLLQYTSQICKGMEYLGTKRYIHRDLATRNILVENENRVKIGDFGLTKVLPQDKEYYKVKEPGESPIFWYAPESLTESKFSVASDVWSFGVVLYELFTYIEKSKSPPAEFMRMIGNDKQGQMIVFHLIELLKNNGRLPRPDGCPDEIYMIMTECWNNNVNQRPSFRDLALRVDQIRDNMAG

In the case of `CC(C)C(=O)NC1CCN(C(=O)c2cc(NC(C)(C)C)nc(-c3cnn4ccsc34)n2)CC1` [Example 69, N-(1-{[6-(tert-Butylamino)-2-(pyrazolo[5,1-b][1,3]thiazol-7-yl)pyrimidin-4-yl]carbonyl}piperidin-4-yl)-2-methylpropanamide], the IC50 turned out to be 810 nM in test [1], 3500 nM in test [2] and 5700 nM in test [3].

As to `CCOC(=O)NC1CCN(C(=O)c2cc(NC(C)(C)C)nc(-c3cnn4ccsc34)n2)CC1` [Example 71, Ethyl (1-{[6-(tert-butylamino)-2-(pyrazolo[5,1-b][1,3]thiazol-7-yl)pyrimidin-4-yl]carbonyl}piperidin-4-yl)carbamate], the IC50 amounted to 200 nM in test [1], 3700 nM in test [2] and 4000 nM in test [3].

As to `CC(C)(C)Nc1cc(C(=O)N2CCC(Nc3ccccn3)CC2)nc(-c2cnn3ccsc23)n1` [Example 72, [6-(tert-Butylamino)-2-(pyrazolo[5,1-b][1,3]thiazol-7-yl)pyrimidin-4-yl][4-(pyridin-2-ylamino)piperidin-1-yl]methanone], the IC50 in test [1] was found to be 310 nM; in test [2] it was 6100 nM; in test [3], 5900 nM.

Regarding `CC(C)(C)Nc1cc(C(=O)N2CCC(Nc3nccs3)CC2)nc(-c2cnn3ccsc23)n1` [Example 75, [6-(tert-Butylamino)-2-(pyrazolo[5,1-b][1,3]thiazol-7-yl)pyrimidin-4-yl][4-(1,3-thiazol-2-ylamino)piperidin-1-yl]methanone], the results for the IC50 in test [1], in test [2] and in test [3] were 150 nM, 930 nM and 4800 nM, respectively.

For `COC(=O)NC1CCN(C(=O)c2cc(N[C@H](C)c3ccc(F)cc3)nc(-c3cnn4ccsc34)n2)CC1` [Example 77, Methyl (1-{[6-{[(1R)-1-(4-fluorophenyl)ethyl]amino}-2-(pyrazolo[5,1-b][1,3]thiazol-7-yl)pyrimidin-4-yl]carbonyl}piperidin-4-yl)carbamate], the half-maximal inhibitory concentration (IC50) was 980 nM in test [1], 3200 nM in test [2] and over 10000 nM in test [3].

With `O=C(NC1CCN(C(=O)c2cc(NCC3CNC3)nc(-c3cnn4ccsc34)n2)CC1)C1CC1` [Example 78, N-[1-({6-[(Azetidin-3-ylmethyl)amino]-2-(pyrazolo[5,1-b][1,3]thiazol-7-yl)pyrimidin-4-yl}carbonyl)piperidin-4-yl]cyclopropanecarboxamide], the 50% inhibitory concentration (IC50) in test [1] was 4100 nM; in test [2] it was over 10000 nM; in test [3], over 10000 nM.

In the case of `CC(C)C(=O)NC1CCN(C(=O)c2cc(N[C@H](C)c3ccc(F)cc3)nc(-c3cnn4ccsc34)n2)CC1` [Example 79, N-(1-{[6-{[(1R)-1-(4-Fluorophenyl)ethyl]amino}-2-(pyrazolo[5,1-b][1,3]thiazol-7-yl)pyrimidin-4-yl]carbonyl}piperidin-4-yl)-2-methylpropanamide], the concentration for half-maximal inhibition (IC50) in test [1] is 870 nM; in test [2], 3300 nM; in test [3] it was over 10000 nM.

As to `CCC(C)(C)Nc1cc(C(=O)N2CCC(NC(=O)OC)CC2)nc(-c2cnn3ccsc23)n1` [Example 80, Methyl [1-({6-[(2-methylbutan-2-yl)amino]-2-(pyrazolo[5,1-b][1,3]thiazol-7-yl)pyrimidin-4-yl}carbonyl)piperidin-4-yl]carbamate], the figures for the concentration for half-maximal inhibition (IC50) in test [1], in test [2] and in test [3] were 110 nM, 820 nM and 2300 nM, respectively.

On to `CCCOC(=O)NC1CCN(C(=O)c2cc(NC(C)(C)C)nc(-c3cnn4ccsc34)n2)CC1` [Example 82, Propyl (1-{[6-(tert-butylamino)-2-(pyrazolo[5,1-b][1,3]thiazol-7-yl)pyrimidin-4-yl]carbonyl}piperidin-4-yl)carbamate], for which the values for the concentration for half-maximal inhibition (IC50) in test [1], in test [2] and in test [3] were 58 nM, 9700 nM and 5800 nM, respectively.

The record behind these values is patent US9999622B2, “Pyrazolothiazole compound and medicine comprising same” (NIPPON SHINYAKU CO., LTD., priority 2014, dated 2018).
